Counter-ions that a name gives are not always drawn.
biological target: T1, human glioblastoma A172 cells, naturally expressing hTDO2 (Homo sapiens, UniProt P48775); test: Cellular assay for TDO2 activity, A172 cells; type: cell-based; conditions: overnight incubation, kynurenine in supernatant
T1 construct: human glioblastoma A172 cells, naturally expressing hTDO2; endogenous in cells; host or cells: human glioblastoma A172 cells (ATCC CRL-1620)
Protocol: The compounds of formula I inhibit the activity of human TDO2 in cells that constitutively express TDO2, such as A172 cells. A172 is a cell line derived from human brain glioblastoma cells. The cells are available from the American Type Culture Collection (ATCC®) as CRL-1620™
The assay (adapted from Pilotte L et al., Proc Natl Acad Sci USA, 2012, 109(7), 2497-502) was performed in 96-well flat bottom plates seeded with human glioblastoma A172 cells, naturally expressing hTDO2 (prepared as described in Tilman et al., Mol Cancer, 2007, 17(6), 80), at a concentration of 1.25×10^4 cells/well in a final volume of 200 μL. To determine TDO, the cells were incubated overnight at 37° C. at 5% CO2 in IMDM (Invitrogen) supplemented with 2% FBS and 2% penicillin/streptomycin in the presence of the compounds of the present invention, at different concentrations.
The plates were then centrifuged 5 min at 1000 rpm, and 100 μL of the supernatant were collected in a conical plate, 30 uL of TCA 30% were added and a further centrifugated at 3000×g for 10 minutes. 100 μL of the supernatant were collected in a flat bottomed plate and 100 μL of 2% (w/v) 4-(dimethylamino)-benzaldehyde in acetic acid and incubated for 5 min at room temperature. Kynurenine concentrations were determined by measuring the absorbance at 480 nm. A standard curve was made with pure kynurenine. The TDO activity was measured as described above using ten serial concentrations of the compounds of the present invention. Data were fitted using the Prism™ software (GraphPad Software, Inc.) using standard parameters.

T1 sequence (P48775 whole entry): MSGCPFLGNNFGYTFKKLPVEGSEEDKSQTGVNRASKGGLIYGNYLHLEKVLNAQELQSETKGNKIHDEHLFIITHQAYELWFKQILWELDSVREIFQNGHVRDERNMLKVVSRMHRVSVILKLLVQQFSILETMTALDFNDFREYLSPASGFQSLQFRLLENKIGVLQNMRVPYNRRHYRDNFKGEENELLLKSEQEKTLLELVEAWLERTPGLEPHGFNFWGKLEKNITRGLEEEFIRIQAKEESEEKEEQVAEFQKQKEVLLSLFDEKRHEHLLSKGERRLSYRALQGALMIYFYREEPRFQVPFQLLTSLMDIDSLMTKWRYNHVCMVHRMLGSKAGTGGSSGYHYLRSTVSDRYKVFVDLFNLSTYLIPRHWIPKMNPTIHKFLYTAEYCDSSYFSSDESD

With `C[C@@H]1CN[C@@H](C)CN1CCc1nc2ccc(-c3c[nH]c4cc(F)ccc34)cc2o1` (relative stereo) [Compound 141, 2-(2-(trans-2,5-dimethylpiperazin-1-yl)ethyl)-6-(6-fluoro-1H-indol-3-yl)benzo[d]oxazole] as the molecule, how does the IC50 read?
The IC50 was 340 nM.

How did the IC50 turn out when `Nc1nc2ccc(-c3c[nH]c4cc(F)ccc34)cc2[nH]1` [Compound 41, 6-(6-fluoro-1H-indol-3-yl)-1H-benzo[d]imidazol-2-amine] was run?
The IC50 was 1090 nM.

Which IC50 does the source give for `Fc1ccc2c(-c3ccc4nc(C5CCNCC5)oc4c3)c[nH]c2c1` [Compound 55, 6-(6-fluoro-1H-indol-3-yl)-2-(piperidin-4-yl)benzo[d]oxazole] here?
Its IC50 is 171 nM.

`CC(=O)N1CCC(c2nc3ccc(-c4c[nH]c5cc(F)ccc45)cc3o2)CC1` [Compound 56, 1-(4-(6-(6-fluoro-1H-indol-3-yl)benzo[d]oxazol-2-yl)piperidin-1-yl)ethanone] was tested. Which IC50 did it give?
Its IC50 is 311 nM.

For `CS(=O)(=O)Nc1nc2ccc(-c3c[nH]c4cc(F)ccc34)cc2o1` [Compound 58, N-(6-(6-fluoro-1H-indol-3-yl)benzo[d]oxazol-2-yl)methanesulfonamide], which IC50 is on record?
Its IC50 is 3770 nM.

Which IC50 does the source give for `Fc1ccc2c(-c3ccc4oc(CN5CCNCC5)nc4c3)c[nH]c2c1` [Compound 61, 5-(6-fluoro-1H-indol-3-yl)-2-(piperazin-1-ylmethyl)benzo[d]oxazole] here?
Its IC50 is 459 nM.

`Fc1ccc2c(-c3ccc4oc(CN5CCOCC5)nc4c3)c[nH]c2c1` [Compound 63, 5-(6-fluoro-1H-indol-3-yl)-2-(morpholinomethyl)benzo[d]oxazole] was tested. Which IC50 did it give?
Its IC50 is 597 nM.

With `NC(=O)CCn1c(=O)oc2cc(-c3c[nH]c4cc(F)ccc34)ccc21` [Compound 67, 3-(6-(6-fluoro-1H-indol-3-yl)-2-oxobenzo[d]oxazol-3(2H)-yl)propanamide] as the molecule, how does the IC50 read?
The IC50 was 2520 nM.

With `NC(=O)Cn1c(=O)oc2ccc(-c3c[nH]c4cc(F)ccc34)cc21` [Compound 69, 2-(5-(6-fluoro-1H-indol-3-yl)-2-oxobenzo[d]oxazol-3(2H)-yl)acetamide] as the molecule, how does the IC50 read?
The IC50 was 3280 nM.

Which IC50 does the source give for `NC(=O)CCn1c(=O)oc2ccc(-c3c[nH]c4cc(F)ccc34)cc21` [Compound 71] here?
Its IC50 is 3530 nM.

`Fc1ccc2c(-c3ccc4sccc4c3)c[nH]c2c1` [Compound 72, 3-(benzo[b]thiophen-5-yl)-6-fluoro-1H-indole] was tested. Which IC50 did it give?
Its IC50 is 442 nM.

How did the IC50 turn out when `CC(=O)NCc1nc2cc(-c3c[nH]c4cc(F)ccc34)ccc2o1` [Compound 73, N-((5-(6-fluoro-1H-indol-3-yl)benzo[d]oxazol-2-yl)methyl)acetamide] was run?
Its IC50 is 363 nM.

`NCc1nc2ccc(-c3c[nH]c4cc(F)ccc34)cc2o1` [Compound 76, (6-(6-fluoro-1H-indol-3-yl)benzo[d]oxazol-2-yl)methanamine hydrochloride] was tested. Which IC50 did it give?
The IC50 was 440 nM.

`Fc1ccc2c(-c3ccc4ccsc4c3)c[nH]c2c1` [Compound 79, 3-(benzo[b]thiophen-6-yl)-6-fluoro-1H-indole] was tested. Which IC50 did it give?
Its IC50 is 802 nM.

For `CS(=O)(=O)CCc1nc2cc(-c3c[nH]c4cc(F)ccc34)ccc2o1` [Compound 80, 5-(6-fluoro-1H-indol-3-yl)-2-(2-(methylsulfonyl)ethyl)benzo[d]oxazole], which IC50 is on record?
The IC50 was 842 nM.

`NCc1nc2cc(-c3c[nH]c4cc(F)ccc34)ccc2o1` [Compound 81, (5-(6-fluoro-1H-indol-3-yl)benzo[d]oxazol-2-yl)methanamine] was tested. Which IC50 did it give?
The IC50 was 1620 nM.

For `Fc1ccc2c(-c3ccc4occc4c3)c[nH]c2c1` [Compound 82, 3-(benzofuran-5-yl)-6-fluoro-1H-indole], which IC50 is on record?
The IC50 was 602 nM.

How did the IC50 turn out when `NC(=O)CCc1nc2ccc(-c3c[nH]c4cc(F)ccc34)cc2o1` [Compound 83, 3-(6-(6-fluoro-1H-indol-3-yl)benzo[d]oxazol-2-yl)propanamide] was run?
The IC50 was 154 nM.

Which IC50 does the source give for `NC(=O)Cn1cnc2ccc(-c3c[nH]c4cc(F)ccc34)cc21` [Compound 84, 2-(6-(6-fluoro-1H-indol-3-yl)-1H-benzo[d]imidazol-1-yl)acetamide] here?
Its IC50 is 1020 nM.

With `NC(=O)Cn1cnc2cc(-c3c[nH]c4cc(F)ccc34)ccc21` [Compound 85, 2-(5-(6-fluoro-1H-indol-3-yl)-1H-benzo[d]imidazol-1-yl)acetamide] as the molecule, how does the IC50 read?
The IC50 was 1330 nM.

For `O=C(CCn1ncc2cc(-c3c[nH]c4cc(F)ccc34)ccc21)N1CCOCC1` [Compound 86, 3-(5-(6-fluoro-1H-indol-3-yl)-1H-indazol-1-yl)-1-morpholinopropan-1-one], which IC50 is on record?
Its IC50 is 646 nM.

Which IC50 does the source give for `CN1CCN(C(=O)CCn2ncc3cc(-c4c[nH]c5cc(F)ccc45)ccc32)CC1` [Compound 87, 3-(5-(6-fluoro-1H-indol-3-yl)-1H-indazol-1-yl)-1-(4-methylpiperazin-1-yl)propan-1-one] here?
The IC50 was 298 nM.

For `CN(C)CCNC(=O)CCn1ncc2cc(-c3c[nH]c4cc(F)ccc34)ccc21` [Compound 88, N-(2-(dimethylamino)ethyl)-3-(5-(6-fluoro-H-indol-3-yl)-1H-indazol-1-yl)propanamide], which IC50 is on record?
Its IC50 is 170 nM.

With `O=C(CCn1ncc2cc(-c3c[nH]c4cc(F)ccc34)ccc21)NCCO` [Compound 89, 3-(5-(6-fluoro-1H-indol-3-yl)-1H-indazol-1-yl)-N-(2-hydroxyethyl)propanamide] as the molecule, how does the IC50 read?
Its IC50 is 205 nM.

Which IC50 does the source give for `CS(=O)(=O)CCNC(=O)CCn1ncc2cc(-c3c[nH]c4cc(F)ccc34)ccc21` [Compound 90, 3-(5-(6-fluoro-1H-indol-3-yl)-1H-indazol-1-yl)-N-(2-(methylsulfonyl)ethyl)propanamide] here?
The IC50 was 240 nM.

`O=C(CCn1ncc2cc(-c3c[nH]c4cc(F)ccc34)ccc21)N1CCNCC1` [Compound 91, 3-(5-(6-fluoro-1H-indol-3-yl)-1H-indazol-1-yl)-1-(piperazin-1-yl)propan-1-one] was tested. Which IC50 did it give?
The IC50 was 213 nM.

`O=C1Cc2ccc(-c3c[nH]c4cc(F)ccc34)cc2N1` [Compound 92, 6-(6-fluoro-1H-indol-3-yl)indolin-2-one] was tested. Which IC50 did it give?
Its IC50 is 508 nM.

How did the IC50 turn out when `NC(=O)CCn1cnc2ccc(-c3c[nH]c4cc(F)ccc34)cc21` [Compound 93, 3-(6-(6-fluoro-1H-indol-3-yl)-1H-benzo[d]imidazol-1-yl)propanamide] was run?
Its IC50 is 1150 nM.

How did the IC50 turn out when `NC(=O)CCn1cnc2cc(-c3c[nH]c4cc(F)ccc34)ccc21` [Compound 94, 3-(5-(6-fluoro-1H-indol-3-yl)-1H-benzo[d]imidazol-1-yl)propanamide] was run?
The IC50 was 4640 nM.

With `COCCS(=O)(=O)NCc1nc2ccc(-c3c[nH]c4cc(F)ccc34)cc2o1` [Compound 99, N-((6-(6-fluoro-1H-indol-3-yl)benzo[d]oxazol-2-yl)methyl)-2-methoxyethanesulfonamide] as the molecule, how does the IC50 read?
The IC50 was 351 nM.

With `c1ccc2c(-c3ccc4[nH]ncc4c3)c[nH]c2c1` [Compound 104, 5-(1H-indol-3-yl)-1H-indazole] as the molecule, how does the IC50 read?
Its IC50 is 464 nM.

How did the IC50 turn out when `c1ccc2c(-c3ccc4cn[nH]c4c3)c[nH]c2c1` [Compound 108, 6-(1H-indol-3-yl)-1H-indazole] was run?
The IC50 was 599 nM.

How did the IC50 turn out when `c1ccc2c(-c3ccc4ncoc4c3)c[nH]c2c1` [Compound 109, 6-(1H-indol-3-yl)benzo[d]oxazole] was run?
The IC50 was 446 nM.

With `Clc1ccc2c(-c3ccc4ocnc4c3)c[nH]c2c1` [Compound 111, 5-(6-chloro-1H-indol-3-yl)benzo[d]oxazole] as the molecule, how does the IC50 read?
Its IC50 is 19000 nM.

For `Fc1ccc2c(-c3ccc4nc(S)oc4c3)c[nH]c2c1` [Compound 112, 6-(6-fluoro-1H-indol-3-yl)benzo[d]oxazole-2-thiol], which IC50 is on record?
Its IC50 is 979 nM.

With `Fc1ccc2c(-c3ccc4nc(CC5CCNCC5)oc4c3)c[nH]c2c1` [Compound 113, 6-(6-fluoro-1H-indol-3-yl)-2-(piperidin-4-ylmethyl)benzo[d]oxazole] as the molecule, how does the IC50 read?
The IC50 was 284 nM.

For `CS(=O)(=O)NCc1nc2ccc(-c3c[nH]c4ccccc34)cc2o1` [Compound 114, N-((6-(1H-indol-3-yl)benzo[d]oxazol-2-yl)methyl)methanesulfonamide], which IC50 is on record?
The IC50 was 478 nM.

Which IC50 does the source give for `CN1CCC[C@H]1C(=O)NCc1nc2ccc(-c3c[nH]c4cc(F)ccc34)cc2o1` [Compound 115, (S)—N-((6-(6-fluoro-1H-indol-3-yl)benzo[d]oxazol-2-yl)methyl)-1-methylpyrrolidine-2-carboxamide] here?
The IC50 was 349 nM.

How did the IC50 turn out when `COc1nc2ccc(-c3c[nH]c4cc(F)ccc34)cc2o1` [Compound 116, 6-(6-fluoro-1H-indol-3-yl)-2-methoxybenzo[d]oxazole] was run?
Its IC50 is 372 nM.

Which IC50 does the source give for `NS(=O)(=O)NCc1nc2ccc(-c3c[nH]c4cc(F)ccc34)cc2o1` [Compound 117, Amino{[6-(6-fluoroindol-3-yl)benzoxazol-2-yl]methyl}sulfonamide] here?
The IC50 was 278 nM.

For `c1ccc2c(-c3ccc4ocnc4c3)c[nH]c2c1` [Compound 118, 5-(1H-indol-3-yl)benzo[d]oxazole], which IC50 is on record?
The IC50 was 1530 nM.

With `CS(=O)(=O)N1CCC(Cc2nc3ccc(-c4c[nH]c5cc(F)ccc45)cc3o2)CC1` [Compound 119, 6-(6-fluoro-1H-indol-3-yl)-2-((1-(methylsulfonyl)piperidin-4-yl)methyl)benzo[d]oxazole] as the molecule, how does the IC50 read?
Its IC50 is 1020 nM.

For `CS(=O)(=O)N1CCN(CCc2nc3ccc(-c4c[nH]c5cc(F)ccc45)cc3o2)CC1` [Compound 120, 6-(6-fluoro-1H-indol-3-yl)-2-(2-(4-(methylsulfonyl)piperazin-1-yl)ethyl)benzo[d]oxazole], which IC50 is on record?
Its IC50 is 443 nM.

— US20150266857A1, “NOVEL 3-INDOL SUBSTITUTED DERIVATIVES, PHARMACEUTICAL COMPOSITIONS AND METHODS FOR USE” (iTeos Therapeutics, priority 2014, published 2015)
